Common to all, as to experiment: competitive TR-FRET assay, BET-BD with acetylated peptide ligand
Common to all, as to assay type: binding
Background: In TR-FRET formats the signal depends on donor and acceptor labels being close together.

In experiment [1] the target is BRD4-BD1 (Homo sapiens (Human), UniProt O60885). The settings on record: BRD4-BD1; Table 11 additional modifications; read-out: 4.1 EC50. Here is the method: (§1) Inhibitor potency was determined using a competitive TR-FRET assay as detailed herein, measuring interaction of the respective BET-BD with an acetylated peptide ligand (Table 2).
Experiment [2] addresses BRDT (Homo sapiens, UniProt Q58F21). Conditions: BRDT; Table 11 additional modifications; read-out: BRDT EC50. Here is the method: as §1
For experiment [3], the target named is BRD2-BD1 (Homo sapiens (Human), UniProt P25440). The settings on record: BRD2-BD1; Table 11 additional modifications; read-out: 2.1 EC50. As for the experimental part:
as §1

The target in experiment [4] is BRD3-BD1 (Homo sapiens (Human), UniProt Q15059). Conditions: BRD3-BD1; Table 11 additional modifications; read-out: 3.1 EC50. Here is the method:
as §1

Experiment [5] addresses BRD2-BD2 (Homo sapiens (Human), UniProt P25440). Conditions: for EC50: BRD2-BD2, Table 11 additional modifications, read-out: 2.2 EC50; for 2.1/2.2: ratio of BRD2-BD1 EC50 to BRD2-BD2 EC50 (selectivity). As for the experimental part: as §1

By EC50 is commonly meant the concentration giving half of the maximal effect.

BRD3-BD1, sequence (Q15059 34-140): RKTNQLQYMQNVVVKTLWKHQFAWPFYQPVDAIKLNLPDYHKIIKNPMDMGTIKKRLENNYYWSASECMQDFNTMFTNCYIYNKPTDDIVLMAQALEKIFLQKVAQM
BRD2-BD1, sequence (P25440 74-180): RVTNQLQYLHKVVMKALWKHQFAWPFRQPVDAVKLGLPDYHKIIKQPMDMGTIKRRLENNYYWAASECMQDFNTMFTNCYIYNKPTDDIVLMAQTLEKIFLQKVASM
BRD2-BD2, sequence (P25440 344-453): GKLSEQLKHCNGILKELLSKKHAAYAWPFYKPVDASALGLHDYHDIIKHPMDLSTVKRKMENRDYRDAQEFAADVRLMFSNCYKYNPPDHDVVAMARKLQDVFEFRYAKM

As to `CC(=O)N1c2ccc(-c3cccc(NCCCc4ccccc4)c3)cc2[C@H](NC(=O)OC(C)C)C[C@@H]1C` [compound 109], the EC50 in experiment [1] was more than 11 µM; in experiment [2], 11 µM; in experiment [3] it was 11 µM; in experiment [4], 0.67 µM; in experiment [5], 0.28 µM. Further, the 2.1/2.2 in experiment [5] stood at 5.6.

In the case of `CC(=O)Nc1cccc(-c2ccc3c(c2)[C@H](Nc2ccc(C(=O)CO)cc2)C[C@H](C)N3C(C)=O)c1` [compound 30], the EC50 was more than 70 µM in experiment [1]; 4.8 µM in experiment [2]; 2.9 µM in experiment [3]; 9.8 µM in experiment [4]; 0.02 µM in experiment [5]. For the same compound, in experiment [5], the 2.1/2.2 is given as 145.

With `CC(=O)N1c2ccc(-c3cccc(NC(=O)Cc4ccccc4)c3)cc2[C@H](NC(=O)OC(C)C)C[C@@H]1C` [compound 110], the EC50 in experiment [1] was determined as 1.1 µM; in experiment [2], 1.6 µM; in experiment [3], 1.3 µM; in experiment [4], 0.23 µM; in experiment [5], 0.12 µM. In experiment [5], the 2.1/2.2 is given as 14.

Regarding `CC(=O)Nc1cccc(-c2ccc3c(c2)[C@H](Nc2ccc(-c4nnc(C)o4)cc2)C[C@H](C)N3C(C)=O)c1` [compound 35], the EC50 in experiment [1] was found to be 2.5 µM; in experiment [2], 0.14 µM; in experiment [3] it was 0.08 µM; in experiment [4] it was 0.13 µM; in experiment [5], 0.012 µM. Further, the 2.1/2.2 in experiment [5] is on record as 6.7.

In the case of `CC(=O)N1c2ccc(-c3cccc(NCC(C)C)c3)cc2[C@H](NC(=O)OC(C)C)C[C@@H]1C` [compound 96], the concentration giving a half-maximal response (EC50) in experiment [1] is 1.9 µM; in experiment [2], 6.2 µM; in experiment [3], 2.6 µM; in experiment [4], 0.83 µM; in experiment [5] it was 0.79 µM. Besides, in experiment [5], the 2.1/2.2 was found to be 11.

With `CC(=O)Nc1cccc(-c2ccc3c(c2)[C@H](Nc2ccc(CN)cc2)C[C@H](C)N3C(C)=O)c1` [compound 26], the EC50 is 1.1 µM in experiment [1]; more than 36 µM in experiment [2]; 0.47 µM in experiment [3]; 0.078 µM in experiment [4]; 0.023 µM in experiment [5]. Also, the 2.1/2.2 in experiment [5] worked out at 20.

In the case of `CC(=O)N1c2ccc(-c3cccc(NCCC(C)C)c3)cc2[C@H](NC(=O)OC(C)C)C[C@@H]1C` [compound 100], the EC50 is 6 µM in experiment [1]; 40 µM in experiment [2]; 3.8 µM in experiment [3]; 0.69 µM in experiment [4]; 40 µM in experiment [5]. In addition, the 2.1/2.2 in experiment [5] was determined as 7.3.

`CC(=O)Nc1cccc(-c2ccc3c(c2)[C@H](Nc2cccc4ncccc24)C[C@H](C)N3C(C)=O)c1` [compound 31]: the 50% effective concentration (EC50) came to 0.59 µM in experiment [1]; 1.2 µM in experiment [2]; 0.88 µM in experiment [3]; 0.29 µM in experiment [4]; 0.02 µM in experiment [5]. In addition, the 2.1/2.2 in experiment [5] is reported as 44.

`CCCCOc1cccc(-c2ccc3c(c2)[C@H](Nc2ccc(C(=O)OC)cc2)C[C@H](C)N3C(C)=O)c1` [compound 164]: the EC50 in experiment [1] is 57 µM; in experiment [2], 32 µM; in experiment [3], 22 µM; in experiment [4], 30 µM; in experiment [5] it was 0.22 µM. In addition, in experiment [5], the 2.1/2.2 is on record as 100.

With `CC(=O)N1c2ccc(-c3cccc(NC(=O)CCc4ccccc4)c3)cc2[C@H](NC(=O)OC(C)C)C[C@@H]1C` [compound 116], the EC50 in experiment [1] was determined as 2.3 µM; in experiment [2], 1.2 µM; in experiment [3], 1.2 µM; in experiment [4], 0.28 µM; in experiment [5], 0.38 µM. Further, the 2.1/2.2 in experiment [5] turned out to be 7.0.

`CC(=O)N1c2ccc(-c3cccc(NCc4ccc(C)cc4)c3)cc2[C@H](NC(=O)OC(C)C)C[C@@H]1C` [compound 103]: the concentration giving a half-maximal response (EC50) in experiment [1] amounted to 3.5 µM; in experiment [2], 4.8 µM; in experiment [3], 3.7 µM; in experiment [4], 0.89 µM; in experiment [5], 2.8 µM. In addition, the 2.1/2.2 in experiment [5] is on record as 13.

With `CCCOc1cccc(-c2ccc3c(c2)[C@H](Nc2ccc(F)cc2OC)C[C@H](C)N3C(C)=O)c1` [compound 168], the EC50 in experiment [1] is more than 57 µM; in experiment [2], 39 µM; in experiment [3], 35 µM; in experiment [4] it was 45 µM; in experiment [5], 1.2 µM. For the same compound, the 2.1/2.2 in experiment [5] is on record as 99.

Take `CC(=O)Nc1cccc(-c2ccc3c(c2)[C@H](Nc2ccc(-c4nnnn4C)cc2)C[C@H](C)N3C(C)=O)c1` [compound 28]: the EC50 in experiment [1] was more than 52 µM; in experiment [2] it was more than 52 µM; in experiment [3] it was more than 52 µM; in experiment [4] it was more than 52 µM; in experiment [5], 0.01 µM.

On to `CC(=O)N1c2ccc(-c3cccc(NC(=O)C4CCCCC4)c3)cc2[C@H](NC(=O)OC(C)C)C[C@@H]1C` [compound 99], for which the EC50 in experiment [1] worked out at 1 µM; in experiment [2] it was 0.73 µM; in experiment [3], 0.94 µM; in experiment [4], 0.25 µM; in experiment [5] it was 0.12 µM. In addition, the 2.1/2.2 in experiment [5] is 12.

With `CCCCNc1cccc(-c2ccc3c(c2)[C@H](NC(=O)OC(C)C)C[C@H](C)N3C(C)=O)c1` [compound 114], the EC50 in experiment [1] amounted to 0.47 µM; in experiment [2], 52 µM; in experiment [3], 0.79 µM; in experiment [4], 0.12 µM; in experiment [5], 0.05 µM. The 2.1/2.2 in experiment [5] is given as 9.1.

For `COc1cc(F)ccc1N[C@@H]1C[C@H](C)N(C(C)=O)c2ccc(-c3cc[nH]n3)cc21` [compound 170], the EC50 in experiment [1] is more than 26 µM; in experiment [2] it was 4.9 µM; in experiment [3], 3.1 µM; in experiment [4], 14 µM; in experiment [5] it was 0.14 µM. Also, in experiment [5], the 2.1/2.2 is 6.5.

Take `CC(=O)N1c2ccc(-c3cccc(NCC4CCOC4)c3)cc2[C@H](NC(=O)OC(C)C)C[C@@H]1C` (some centres unmarked) [compound 105]: the EC50 in experiment [1] stood at 0.2 µM; in experiment [2] it was 1.1 µM; in experiment [3], 0.4 µM; in experiment [4], 0.1 µM; in experiment [5], 0.03 µM. Also, in experiment [5], the 2.1/2.2 amounted to 0.095.

Regarding `CC(=O)N1c2ccc(-c3cccc(NC(=O)c4ccc(C)cc4)c3)cc2[C@H](NC(=O)OC(C)C)C[C@@H]1C` [compound 95], the EC50 in experiment [1] came out at 2 µM; in experiment [2], 0.51 µM; in experiment [3], 3.1 µM; in experiment [4], 0.38 µM; in experiment [5], 0.42 µM. For the same compound, the 2.1/2.2 in experiment [5] is on record as 1.2.

Consider `CC(=O)N1c2ccc(-c3cccc(NC(=O)C4CC4)c3)cc2[C@H](NC(=O)OC(C)C)C[C@@H]1C` [compound 94], for which the EC50 in experiment [1] turned out to be 1.4 µM; in experiment [2], 84 µM; in experiment [3], 2 µM; in experiment [4], 0.43 µM; in experiment [5], 0.17 µM. The 2.1/2.2 in experiment [5] is recorded as 1.2.

As to `CCCNc1cccc(-c2ccc3c(c2)[C@H](NC(=O)OC(C)C)C[C@H](C)N3C(C)=O)c1` [compound 111], the EC50 is 1.8 µM in experiment [1]; 3.9 µM in experiment [2]; 1.9 µM in experiment [3]; 0.65 µM in experiment [4]; 0.52 µM in experiment [5]. Besides, the 2.1/2.2 in experiment [5] turned out to be 0.091.

Consider `CC(=O)N1c2ccc(-c3cccc(NCC4CC4)c3)cc2[C@H](NC(=O)OC(C)C)C[C@@H]1C` [compound 108], for which the EC50 in experiment [1] is 1.7 µM; in experiment [2], 59 µM; in experiment [3], 2.5 µM; in experiment [4], 0.37 µM; in experiment [5] it was 0.36 µM. Besides, in experiment [5], the 2.1/2.2 worked out at 1.3.

Turning to `CC(=O)N1c2ccc(-c3cccc(NC(=O)c4ccccc4)c3)cc2[C@H](NC(=O)OC(C)C)C[C@@H]1C` [compound 107], the EC50 was determined as 0.81 µM in experiment [1]; 0.49 µM in experiment [2]; 1.2 µM in experiment [3]; 0.17 µM in experiment [4]; 0.16 µM in experiment [5]. Further, the 2.1/2.2 in experiment [5] worked out at 11.

On to `CC(=O)Nc1cccc(-c2ccc3c(c2)[C@H](Nc2ccc(-c4nnn(C)n4)cc2)C[C@H](C)N3C(C)=O)c1` [compound 27], for which the EC50 in experiment [1] was determined as 2.1 µM; in experiment [2] it was 0.66 µM; in experiment [3], 0.22 µM; in experiment [4], 0.31 µM; in experiment [5], 0.035 µM. Moreover, in experiment [5], the 2.1/2.2 was determined as 6.3.

With `CCC(=O)Nc1cccc(-c2ccc3c(c2)[C@H](NC(=O)OC(C)C)C[C@H](C)N3C(C)=O)c1` [compound 115], the EC50 in experiment [1] was determined as 0.16 µM; in experiment [2], 0.33 µM; in experiment [3] it was 0.37 µM; in experiment [4], 0.09 µM; in experiment [5] it was 0.04 µM. Also, the 2.1/2.2 in experiment [5] stood at 7.2.

For `CC(=O)N1c2ccc(-c3cccc(NCC4CCCCC4)c3)cc2[C@H](NC(=O)OC(C)C)C[C@@H]1C` [compound 112], the EC50 was 5 µM in experiment [1]; 4.4 µM in experiment [2]; 7.2 µM in experiment [3]; 2.1 µM in experiment [4]; 2.5 µM in experiment [5]. Also, the 2.1/2.2 in experiment [5] worked out at 3.6.

Turning to `COc1cc(F)ccc1N[C@@H]1C[C@H](C)N(C(C)=O)c2ccc(-c3ccn(C)n3)cc21` [compound 173], the EC50 in experiment [1] was determined as 3.8 µM; in experiment [2] it was 2 µM; in experiment [3] it was 1.4 µM; in experiment [4] it was 1.5 µM; in experiment [5], 0.17 µM. Further, in experiment [5], the 2.1/2.2 was determined as 8.2.

The record behind these values is patent US11028051B2, “Tetrahydroquinoline-based bromodomain inhibitors” (St. Jude Children's Research Hospital, priority 2016, dated 2021).
